Test results published in ChEMBL document CHEMBL5537169, “Structure-Activity Relationships and Discovery of (S)-6-Isopropyl-2-methoxy-3-(3-methoxypropoxy)-10-oxo-5,10-dihydro-6H-pyrido[1,2-h][1,7]naphthyridine-9-carboxylic Acid (AB-452), a Novel Orally Available HBV RNA Destabilizer” (J Med Chem, 2024).

Tests used:
[1] = system: Hepatitis B virus; assay: Antiviral activity against HBV infected in human HepG2.2.15 cells assessed as inhibition of HBsAg level incubated for 6 days by microplate-based chemiluminescence immunoassay; type: functional, organism-based; settings: HepG2 2.2.15, 144 h
[2] = system: HepG2 2.2.15; assay: Cytotoxicity against human HepG2.2.15 cells by Cell-titer Glo luminescent assay; type: functional
[3] = Clearance in CD-1 mouse liver microsomes at 0.3 uM pre-incubated for 10 mins followed by NADPH addition incubated for 60 mins by LC-MS/MS analysis; type: ADME, Microsome; settings: time 70 min, read-out: CLH
[4] = Clearance in CD-1 mouse at 2 mg/kg,iv measured at 0.083 to 24 hrs post administration by LC-MS/MS analysis; type: ADME, organism-based; settings: in vivo, time 0.083-24 hrs
[5] = Half life in CD-1 mouse at 10 mg/kg,po measured at 0.083 to 24 hrs post administration by LC-MS/MS analysis; type: ADME, organism-based; settings: in vivo, time 0.083-24 hrs
[6] = Apparent volume of distribution at steady state in CD-1 mouse at 10 mg/kg,po measured at 0.083 to 24 hrs post administration by LC-MS/MS analysis; type: ADME, organism-based; settings: in vivo, time 0.083-24 hrs
[7] = Cmax in CD-1 mouse at 10 mg/kg,po measured at 0.083 to 24 hrs post administration by LC-MS/MS analysis; type: ADME, organism-based; settings: in vivo, time 0.083-24 hrs
[8] = Tmax in CD-1 mouse at 10 mg/kg,po measured at 0.083 to 24 hrs post administration by LC-MS/MS analysis; type: ADME, organism-based; settings: in vivo, time 0.083-24 hrs
[9] = AUCinfinity in CD-1 mouse at 10 mg/kg,po measured at 0.083 to 24 hrs post administration by LC-MS/MS analysis; type: ADME, organism-based; settings: in vivo, time 0.083-24 hrs
[10] = Oral bioavailability in CD-1 mouse at 10 mg/kg measured at 0.083 to 24 hrs by LC-MS/MS analysis; type: ADME, organism-based; settings: in vivo, time 0.083-24 hrs
[11] = Drug accumulation in CD-1 mouse liver at 10 mg/kg,po measured at 0.083 to 24 hrs post administration by LC-MS/MS analysis; type: ADME, organism-based; settings: in vivo, time 0.083-24 hrs
[12] = Half life in Sprague-Dawley rat at 10 mg/kg,po measured at 0.083 to 24 hrs post administration by LC-MS/MS analysis; type: ADME, organism-based; settings: in vivo, po, 10 mg/kg, time 0.083-24 hrs
[13] = Apparent volume of distribution at steady state in Sprague-Dawley rat at 10 mg/kg,po measured at 0.083 to 24 hrs post administration by LC-MS/MS analysis; type: ADME, organism-based; settings: in vivo, time 0.083-24 hrs
[14] = Cmax in Sprague-Dawley rat at 10 mg/kg,po measured at 0.083 to 24 hrs post administration by LC-MS/MS analysis; type: ADME, organism-based; settings: in vivo, po, 10 mg/kg, time 0.083-24 hrs
[15] = Tmax in Sprague-Dawley rat at 10 mg/kg,po measured at 0.083 to 24 hrs post administration by LC-MS/MS analysis; type: ADME, organism-based; settings: in vivo, po, 10 mg/kg, time 0.083-24 hrs
[16] = AUCinfinity in Sprague-Dawley rat at 10 mg/kg,po measured at 0.083 to 24 hrs post administration by LC-MS/MS analysis; type: ADME, organism-based; settings: in vivo, po, 10 mg/kg, time 0.083-24 hrs
[17] = Oral bioavailability in Sprague-Dawley rat at 10 mg/kg measured at 0.083 to 24 hrs by LC-MS/MS analysis; type: ADME, organism-based; settings: in vivo, po, 10 mg/kg, time 0.083-24 hrs
[18] = Drug accumulation in Sprague-Dawley rat liver at 10 mg/kg,po measured at 0.083 to 24 hrs post administration by LC-MS/MS analysis; type: ADME, organism-based; settings: in vivo, time 0.083-24 hrs
[19] = Clearance in human liver microsomes at 0.3 uM pre-incubated for 10 mins followed by NADPH addition incubated for 60 mins by LC-MS/MS analysis; type: ADME, Microsome; settings: time 70 min, read-out: CLH

| Structure (SMILES) | EC50 [1] | microsomal CLint at 0.3 µM [3] | CC50 [2] | other results |
| --- | --- | --- | --- | --- |
| COCCCOc1cc2c(cc1C1CC1)-c1cc(=O)c(C(=O)O)cn1[C@H](C(C)C)CO2 | 6 nM | 1 µL/min/mg | 42000 nM | clearance [4]: 14 mL/min/kg; half-life [5]: 0.9 h; Vdss(app) [6]: 0.8 L/kg; Cmax [7]: 914 ng/mL; Tmax [8]: 4.8 h; AUC(0-inf) [9]: 8410 ng·h/mL; bioavailability [10]: 69%; Ct [11]: 575 ng/g; t1/2 [12]: 1 h; Vdss(app) [13]: 0.3 L/kg; Cmax [14]: 488 ng/mL; Tmax [15]: 3.1 h; AUC [16]: 3950 ng·h/mL; F [17]: 13%; Ct [18]: 20 ng/g |
| CC(C)C1Cc2sccc2-c2cc(=O)c(C(=O)O)cn21 (stereo not drawn) | 2400 nM | – | > 50000 nM | – |
| CCc1cc2c(cc1OCCCOC)OC[C@@H](C(C)C)n1cc(C(=O)O)c(=O)cc1-2 | 6 nM | 10 µL/min/mg | 33000 nM | clearance [4]: 21 mL/min/kg; half-life [5]: 0.8 h; Vdss(app) [6]: 1.1 L/kg; Cmax [7]: 844 ng/mL; Tmax [8]: 2.4 h; AUC(0-inf) [9]: 7080 ng·h/mL; bioavailability [10]: 91%; Ct [11]: 5 ng/g; t1/2 [12]: 2.7 h; Vdss(app) [13]: 0.9 L/kg; Cmax [14]: 351 ng/mL; Tmax [15]: 3.3 h; AUC [16]: 2860 ng·h/mL; F [17]: 24%; Ct [18]: 47 ng/g |
| COCCCOc1cc2c(nc1OC)-c1cc(=O)c(C(=O)O)cn1[C@@H](C(C)C)C2 | 950 nM | – | > 50000 nM | – |
| COc1cc2c(nc1OC)-c1cc(=O)c(C(=O)O)cn1[C@H](C(C)C)C2 | 7 nM | – | > 50000 nM | – |
| CC(C)[C@@H]1COc2cc(OCC(F)(F)F)c(Cl)cc2-c2cc(=O)c(C(=O)O)cn21 | 87 nM | – | 36000 nM | microsomal CLint at 0.3 µM [19]: 4 µL/min/mg |
| COc1cc2c(nc1OC)-c1cc(=O)c(C(=O)O)cn1C(C(C)C)C2 (stereo not drawn) | 14 nM | – | > 50000 nM | – |
| CC(C)[C@@H]1COc2cc(OCC3CC3)c(Cl)cc2-c2cc(=O)c(C(=O)O)cn21 | 32 nM | 1 µL/min/mg | 37000 nM | – |
| COc1nc2c(cc1OCCCO)C[C@@H](C(C)C)n1cc(C(=O)O)c(=O)cc1-2 | 7 nM | – | > 50000 nM | – |

Further molecules by falling EC50 [1], results first:

| EC50 [1] | microsomal CLint at 0.3 µM [3] | Structure (SMILES) | CC50 [2] | other results |
| --- | --- | --- | --- | --- |
| 5000 nM | – | COc1cccc(Cn2cc(C(C)C)n3cc(C(=O)O)c(=O)cc3c2=O)c1 | – | – |
| 3800 nM | – | COc1nc2c(s1)CC(C(C)C)n1cc(C(=O)O)c(=O)cc1-2 (stereo not drawn) | > 50000 nM | – |
| 960 nM | – | COc1cc2c(cn1)-c1cc(=O)c(C(=O)O)cn1C(C(C)C)C2 (stereo not drawn) | > 50000 nM | – |
| 140 nM | 1 µL/min/mg | CC(C)[C@@H]1COc2cc(OCCCN3CCOCC3)c(Cl)cc2-c2cc(=O)c(C(=O)O)cn21 | > 50000 nM | – |
| 14 nM | 1 µL/min/mg | CC(C)[C@@H]1COc2cc(OCCCCO)c(Cl)cc2-c2cc(=O)c(C(=O)O)cn21 | > 50000 nM | – |
| 12 nM | 17 µL/min/mg | CC(C)[C@@H]1COc2cc(OCC(C)(C)CO)c(Cl)cc2-c2cc(=O)c(C(=O)O)cn21 | > 50000 nM | – |
| 4 nM | – | C=Cc1cc2c(cc1OCCCOC)OC[C@@H](C(C)C)n1cc(C(=O)O)c(=O)cc1-2 | 33000 nM | – |
